Experimental data taken from patent US20230405134A1, “NOVEL PROTAC CHIMERIC COMPOUND, AND PHARMACEUTICAL COMPOSITION COMPRISING SAME FOR PREVENTING, AMELIORATING, OR TREATING DISEASES THROUGH TARGET PROTEIN DEGRADATION” (POSTECH RESEARCH AND BUSINESS DEVELOPMENT FOUNDATION, priority 2020, published 2023).
Where a SMILES comes first, the peptide text is derived from it. Bridges are numbered along the chain shown (N, C = ends). [ ]: non-standard residue; d: D form. Cha = N[C@@H](CC1CCCCC1)C(=O)O; S5 = C=CCCC[C@](C)(N)C(=O)O

What was measured:
PAS-B domain of SRC-1 = target: T1, PAS-B domain of SRC-1 (Homo sapiens, UniProt Q15788); assay: Competitive fluorescence polarization (FP) assay against fluorescently labeled STAT-6 peptide; type: binding; details: STAT-6 peptide 100 nM, PAS-B domain 5 μM
T1 construct: PAS-B domain of human SRC-1 (residues 257-385) tagged with His6; His6 (cleaved yes); made in house; host or cells: E. coli BL21 (DE3) pLysS
T1 sequence (Q15788 257-385): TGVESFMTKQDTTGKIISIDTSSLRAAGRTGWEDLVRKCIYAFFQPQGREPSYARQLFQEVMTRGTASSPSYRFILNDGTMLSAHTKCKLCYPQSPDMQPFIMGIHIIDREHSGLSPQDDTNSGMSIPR
Procedure: An expression plasmid of the PAS-B domain of human SRC-1 (residues 257-385) tagged with His6 was provided by Professor John. A. Robinson. (ChemBioChem 2008, 9, 1318-1322). The plasmid was transformed into BL21 (DE3) pLysS cells, and the protein was cultured in Luria-Bertani broth medium and induced with 0.5 mM IPTG at 18° C. for 16 hours. Cell disruption was performed by ultrasonic treatment in a buffer (50 mM Tris-HCl pH 8.0, 200 mM NaCl and 1 mM TCEP), and insoluble materials were removed by centrifugation. HisTrap™ column (GE Healthcare, 17-5255-01) chromatography was performed on the buffer and 500 mM of imidazole was applied for elution. In order to remove the His6-tag, TEV protease was used and the cleaved samples were loaded in HisTrap™ as described above. […]
A competitive fluorescence polarization (FP) assay was performed to evaluate the binding affinity of ND1-YL2 to the target protein. […] After further incubation for 1 hour, the polarization of fluorescence was measured by a Tecan F200 microplate reader (excitation wavelength: 485 nm; emission wavelength: 535 nm). IC50 values were determined using non-linear regression and fitted with GraphPad Prism® 4 software using the following equation: Y=Bottom+(Top-Bottom)/(1+10^X-LogIC50) (FIG. 11A). […] The binding affinity was calculated as described above (FIG. 11B).

UBR box = target: T2, UBR box (Saccharomyces cerevisiae, UniProt P19812); assay: Competitive fluorescence polarization (FP) assay against fluorescein-labeled RLAA peptide; type: binding, S. cerevisiae
T2 construct: UBR box (residues 113-194) in the UBR1 E3 ubiquitin ligase of S. cerevisiae; made in house
T2 sequence (P19812 113-194): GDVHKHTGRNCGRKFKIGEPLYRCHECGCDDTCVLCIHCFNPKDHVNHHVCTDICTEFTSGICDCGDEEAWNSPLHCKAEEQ
Procedure: An expression plasmid of the PAS-B domain of human SRC-1 (residues 257-385) tagged with His6 was provided by Professor John. A. Robinson. (ChemBioChem 2008, 9, 1318-1322). The plasmid was transformed into BL21 (DE3) pLysS cells, and the protein was cultured in Luria-Bertani broth medium and induced with 0.5 mM IPTG at 18° C. for 16 hours. Cell disruption was performed by ultrasonic treatment in a buffer (50 mM Tris-HCl pH 8.0, 200 mM NaCl and 1 mM TCEP), and insoluble materials were removed by centrifugation. HisTrap™ column (GE Healthcare, 17-5255-01) chromatography was performed on the buffer and 500 mM of imidazole was applied for elution. In order to remove the His6-tag, TEV protease was used and the cleaved samples were loaded in HisTrap™ as described above. The SRC-1 was further purified by size exclusion chromatography (HiLoad™ 16/600 Superdex 75 pg) in a final buffer of 20 mM Tris-HCl pH 7.5, 150 mM NaCl and 1 mM TCEP. The expression and purification of the UBR box (residues 113-194) in the UBR1 E3 ubiquitin ligase of S. cerevisiae was performed in the previous manner. (Nat. Struct. Mol. Biol. 2010, 17, 1175-1181).
A competitive fluorescence polarization (FP) assay was performed to evaluate the binding affinity of ND1-YL2 to the target protein. A fluorescently labeled 15-mer STAT-6 peptide (100 nM) was cultured with the PAS-B domain (5 μM) of SRC-1 in a binding buffer (50 mM HEPES, pH 7.4, 150 mM NaCl, and 0.01% Tween 20). After being placed in black Costar 384-well plates for 30 minutes, they were treated with various concentrations of YL2 and ND1-YL2. After further incubation for 1 hour, the polarization of fluorescence was measured by a Tecan F200 microplate reader (excitation wavelength: 485 nm; emission wavelength: 535 nm). IC50 values were determined using non-linear regression and fitted with GraphPad Prism® 4 software using the following equation: Y=Bottom+(Top-Bottom)/(1+10^X-LogIC50) (FIG. 11A). […] The binding affinity was calculated as described above (FIG. 11B).

SRC-3 = target: T3, SRC-3 (Homo sapiens, UniProt Q9Y6Q9); assay: SRC-3 expression level in MDA-MB-231 cells by Western blot; type: cell-based; details: 20 μM
T3 construct: endogenous in cells; host or cells: MDA-MB-231
T3 sequence (Q9Y6Q9 whole entry): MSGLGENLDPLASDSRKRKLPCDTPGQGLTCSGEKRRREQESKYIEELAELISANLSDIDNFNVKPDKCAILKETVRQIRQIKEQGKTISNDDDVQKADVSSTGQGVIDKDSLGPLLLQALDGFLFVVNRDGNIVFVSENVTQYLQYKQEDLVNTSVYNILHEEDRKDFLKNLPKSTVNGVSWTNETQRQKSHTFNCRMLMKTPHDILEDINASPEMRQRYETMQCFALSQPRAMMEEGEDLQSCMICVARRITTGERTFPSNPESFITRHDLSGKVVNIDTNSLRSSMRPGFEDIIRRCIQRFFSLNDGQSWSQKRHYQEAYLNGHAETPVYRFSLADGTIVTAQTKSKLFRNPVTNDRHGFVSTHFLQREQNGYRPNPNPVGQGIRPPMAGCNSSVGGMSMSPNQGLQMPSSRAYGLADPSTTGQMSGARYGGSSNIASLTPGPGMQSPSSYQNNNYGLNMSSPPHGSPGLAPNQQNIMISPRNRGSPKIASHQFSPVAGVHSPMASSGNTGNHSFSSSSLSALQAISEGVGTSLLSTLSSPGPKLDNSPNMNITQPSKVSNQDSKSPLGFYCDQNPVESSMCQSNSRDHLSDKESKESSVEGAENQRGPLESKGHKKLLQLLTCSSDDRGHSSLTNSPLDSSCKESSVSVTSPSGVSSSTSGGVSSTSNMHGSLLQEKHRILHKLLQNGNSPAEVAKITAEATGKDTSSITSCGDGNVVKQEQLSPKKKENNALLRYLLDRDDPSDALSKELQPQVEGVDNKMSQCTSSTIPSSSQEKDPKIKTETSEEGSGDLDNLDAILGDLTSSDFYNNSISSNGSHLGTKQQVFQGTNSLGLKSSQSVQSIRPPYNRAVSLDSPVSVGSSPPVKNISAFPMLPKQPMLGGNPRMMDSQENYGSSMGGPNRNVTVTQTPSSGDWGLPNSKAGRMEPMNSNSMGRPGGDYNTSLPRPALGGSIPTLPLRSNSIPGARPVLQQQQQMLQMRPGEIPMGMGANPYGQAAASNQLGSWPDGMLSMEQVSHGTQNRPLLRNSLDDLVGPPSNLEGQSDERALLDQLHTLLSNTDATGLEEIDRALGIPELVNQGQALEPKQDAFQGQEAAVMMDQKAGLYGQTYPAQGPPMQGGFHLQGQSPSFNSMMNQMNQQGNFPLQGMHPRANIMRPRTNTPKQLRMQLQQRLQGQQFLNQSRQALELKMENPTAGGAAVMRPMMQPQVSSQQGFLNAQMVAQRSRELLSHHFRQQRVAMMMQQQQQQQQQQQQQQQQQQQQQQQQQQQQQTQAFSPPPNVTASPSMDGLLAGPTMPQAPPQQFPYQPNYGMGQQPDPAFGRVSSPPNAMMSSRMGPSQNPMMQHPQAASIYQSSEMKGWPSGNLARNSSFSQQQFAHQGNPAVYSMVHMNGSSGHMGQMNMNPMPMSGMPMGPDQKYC
Procedure: It was confirmed whether ND1-YL2 could selectively target and degrade SRC-1 over other SRC family members. Considering the structural similarity between SRC members, it can be predicted that ND1-YL2 will be able to bind to and degrade other members of the SRC family, such as SRC-3. […] To test this, TNBC MDA-MB-231 cells were treated with ND1-YL2 and the amounts of SRC-3 and SRC-1 were confirmed at the cellular level by Western blotting (FIG. 17).

SRC-1 = SRC-1 (Homo sapiens, UniProt Q15788); assay: SRC-1 expression level in Colo205 cells by Western blot; type: cell-based; set-up: endogenous in cells; details: Colo205 cells expressing very low levels of CRBN, various concentrations
Sequence of SRC-1 (Q15788 whole entry): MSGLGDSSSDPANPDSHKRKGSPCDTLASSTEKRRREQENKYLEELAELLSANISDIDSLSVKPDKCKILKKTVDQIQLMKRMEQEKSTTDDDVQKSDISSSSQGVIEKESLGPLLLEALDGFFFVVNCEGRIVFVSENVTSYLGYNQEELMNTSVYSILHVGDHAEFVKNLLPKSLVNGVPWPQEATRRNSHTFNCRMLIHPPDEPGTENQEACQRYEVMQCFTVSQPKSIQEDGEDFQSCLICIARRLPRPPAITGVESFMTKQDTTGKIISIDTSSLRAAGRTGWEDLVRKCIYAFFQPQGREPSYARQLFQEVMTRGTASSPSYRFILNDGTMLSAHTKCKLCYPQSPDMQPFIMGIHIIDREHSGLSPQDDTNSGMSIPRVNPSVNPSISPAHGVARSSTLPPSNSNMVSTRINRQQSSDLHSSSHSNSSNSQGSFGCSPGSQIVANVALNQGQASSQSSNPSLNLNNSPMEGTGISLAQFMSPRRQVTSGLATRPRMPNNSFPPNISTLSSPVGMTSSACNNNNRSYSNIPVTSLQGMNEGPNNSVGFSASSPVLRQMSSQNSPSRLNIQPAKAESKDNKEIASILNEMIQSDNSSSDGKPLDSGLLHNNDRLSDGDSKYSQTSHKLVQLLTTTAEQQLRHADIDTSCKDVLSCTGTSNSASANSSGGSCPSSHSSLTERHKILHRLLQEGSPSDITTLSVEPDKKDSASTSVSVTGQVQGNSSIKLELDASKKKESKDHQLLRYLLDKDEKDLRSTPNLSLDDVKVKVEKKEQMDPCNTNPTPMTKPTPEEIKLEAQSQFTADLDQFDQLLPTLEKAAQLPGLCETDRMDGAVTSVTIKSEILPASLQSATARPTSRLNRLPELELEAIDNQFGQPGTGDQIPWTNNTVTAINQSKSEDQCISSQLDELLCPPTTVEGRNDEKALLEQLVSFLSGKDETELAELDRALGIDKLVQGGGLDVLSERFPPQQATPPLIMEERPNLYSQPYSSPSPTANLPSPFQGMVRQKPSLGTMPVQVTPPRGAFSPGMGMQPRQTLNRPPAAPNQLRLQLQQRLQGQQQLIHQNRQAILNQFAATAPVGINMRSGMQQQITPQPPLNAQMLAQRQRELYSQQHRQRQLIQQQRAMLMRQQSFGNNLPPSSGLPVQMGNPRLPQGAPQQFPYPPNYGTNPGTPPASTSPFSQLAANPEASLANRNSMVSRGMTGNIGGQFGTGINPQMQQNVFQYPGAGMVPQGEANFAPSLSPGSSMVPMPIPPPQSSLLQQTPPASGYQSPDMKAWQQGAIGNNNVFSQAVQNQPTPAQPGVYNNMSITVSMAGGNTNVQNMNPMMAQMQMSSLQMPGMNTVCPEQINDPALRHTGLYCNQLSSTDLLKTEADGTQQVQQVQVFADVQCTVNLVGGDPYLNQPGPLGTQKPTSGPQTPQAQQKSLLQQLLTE
Procedure: MDA-MB-231 cells were cultured at 37° C. in Dulbecco's modified Eagle's medium (DMEM) supplemented with penicillin-streptomycin containing 10% fetal bovine serum (FBS) and 5% CO2. Colo205 and A549 cells were cultured at 37° C. in Roswell Park Memorial Institute medium supplemented with penicillin-streptomycin with 10% FBS and 5% CO2.
In order to compare the SRC-1 proteolytic activity of ND1-YL2 and CL1-YL2 peptides in cells, A549 cells, which are human lung carcinoma cells, were treated with various concentrations of CL1-YL2, and the effect on SRC-1 degradation was analyzed by Western blot. A549 cells were seeded at 5×10^5 cells per well in a 6-well plate (Corning). Colo205 cells were seeded at 6×10^5 cells per well in a 6-well plate. After incubation at 37° C. for 24 hours, the cells were treated with the synthesized compounds in Opti-MEM medium. The cells were washed twice with cold Dulbecco's phosphate buffered saline (DPBS) prior to cell lysis. In order to lyse the cells, the cells on ice were treated with lysis buffer (50 mM Tris HCl pH 7.4, 150 mM NaCl, 1% TritonX, 1 mM EDTA, 1 mM DTT and 1×protease inhibitor cocktail). The cell lysate was centrifuged at 13,000×rpm for 15 minutes at 4° C. The supernatant was collected and the protein concentration was determined by Pierce™ 660 nm protein assay. […]

SMILES: CC(C)C[C@H](NC(=O)[C@H](C)NC(=O)[C@H](C)NC(=O)[C@H](C)NC(=O)[C@H](C)NC(=O)[C@H](CC(C)C)NC(=O)[C@@H](N)CCCNC(=N)N)C(=O)N[C@@H](CC(C)C)C(=O)N1CCC[C@H]1C(=O)N1CCC[C@H]1C(=O)N[C@H](C(=O)N[C@@H](CCC(=O)O)C(=O)N[C@@H](CCC(N)=O)C(=O)N[C@@H](CC(=O)O)C(=O)N[C@@H](CC(C)C)C(=O)N[C@@]1(C)CCC/C=C\CCC[C@@](C)(C(=O)N[C@@H](Cc2ccc(O)cc2)C(N)=O)NC(=O)[C@H](CC2CCCCC2)NC(=O)[C@H](CC(C)C)NC(=O)[C@H](CCCCN)NC1=O)[C@@H](C)O [ND1-YL2] (H-RLAAAALLPPTEQDL[S5]KL[Cha][S5]Y-NH2; staple (Z) 16-20)
- Ki (PAS-B domain of SRC-1): 320 nM
- Improved affinity for the UBR box compared to the RLAA tetrapeptide (UBR box): approximately 3 fold
- Ki (UBR box): 1480 nM
- Difference in binding affinity for target E3 ligase compared to CL1-YL2 (UBR box; ND1-YL2 binds less strongly to its E3 ligase than CL1-YL2): ~10 fold
- Degradation effect on SRC-3 (SRC-3): no degradation effect was observed
- Effect on SRC-1 expression level (SRC-1): induced a decrease in the expression level of SRC-1 in a dose-dependent manner
